In patent publication EP4488279A1, “SUBSTITUTED HEXAHYDRO-2H-PYRAZINO[1,2-A]PYRAZIN-1(6H)-ONE DERIVATIVES AS ACTIVATORS OF HUMAN CASEINOLYTIC PROTEASE P (HSCLPP)” (Centro Atlantico del Medicamento S.A (Ceamed, S.A), priority 2023, dated 2025):
pIC50: −log10 of the molar value.

Legend:
4T1 = assay: MTT cell viability assay, 4T1; assay type: cell-based; details: Mus musculus; 4T1 cells, 48 H, MTT, average of at least two independent experiments; read-out: IC50 4T1 48 H
Experimental: This a mouse epithelial breast cancer cell line classified as being triple negative and mimics human breast cancer; stage IV.
Cell viability was assayed by measuring the mitochondrial reduction of the tetrazolium salt 3-(4,5-methyltiazol-2yl)-2,5diphenyl-tetrazolium bromide] (MTT) (Applichen; A2231,0010) [Mosmann T. J Immunol Methods. […] Oncogene. […] Cells were seeded at a density according to their exponential growth phase (normally 1000 to 5000/well). The cells were cultured at 37 °C in the dark in air containing 5% CO2. After 24h either vehicle (0.05% DMSO), or drug, was added to culture medium at the indicated concentrations (10 to 0,01microM). […] The medium was then removed, and the precipitated formazan was solubilized by the addition of DMSO (200 µL).

PANC1 = assay: MTT cell viability assay, PANC1; assay type: cell-based; details: Homo sapiens, PANC-1, PANC1 cells, 72 H, average of at least two independent experiments
Experimental: This a human cancer cell line derived from the pancreas of a person.
(§1) Cell viability was assayed by measuring the mitochondrial reduction of the tetrazolium salt 3-(4,5-methyltiazol-2yl)-2,5diphenyl-tetrazolium bromide] (MTT) (Applichen; A2231,0010) [Mosmann T. J Immunol Methods. […] Oncogene. […] Cells were seeded at a density according to their exponential growth phase (normally 1000 to 5000/well). The cells were cultured at 37 °C in the dark in air containing 5% CO2. After 24h either vehicle (0.05% DMSO), or drug, was added to culture medium at the indicated concentrations (10 to 0,01microM). After another 72 h, MTT (0.3 mg/ml) was added to cells, followed by incubation for 2-4h at 37 °C in the dark. The medium was then removed, and the precipitated formazan was solubilized by the addition of DMSO (200 µL).

Yeast + HsCIpP = assay: Yeast growth inhibition screen, yeast expressing human ClpP; assay type: cell-based; details: Saccharomyces cerevisiae, 24 h, read-out: Yeast + HsCIpP GI50
Description: This technique allows to directionally assemble several DNA fragments into one single DNA piece. It is based on plasmid libraries that share the same DNA backbone but differ in the type of the insert. The assembly of the final cassette is based on the "Golden Gate Cloning" method. Human CLPP gene sequence (codon-optimized for yeast translation) was amplified with well-designed primers from a plasmid kindly provided by Dr. Michael David Tyers (University of Montreal). Once amplified, a MoClo reaction was performed to obtain the final integrative cassette. This cassette was composed as follows: • Type 1: ConLS 3' connector. • Type 2: TDH3 gene promoter (strong and constitutive expression). • Type 3: Amplified human CLPP gene. • Type 4: ADH1 gene terminator. • Type 5: ConR1 5' connector. • Type 6: LEU2 gene as selectable marker for yeast. • Type 7: 3' HO gene homology sequence for yeast integration. • Type 8a: KanR-ColE1 sequence for bacterial amplification and antibiotic resistance. • Type 8b: 5' HO gene homology sequence for yeast integration.
Digestion patterns with several restriction enzymes were carried out to confirm the success of the MoClo system. An extra restriction enzyme reaction (Notl) was performed to linearize the DNA fragment and deplete the bacterial part.
(§2) These cells contain mutants in YRS1, YRR1, PDR1 and PDR3 genes, which are involved in polydrug and pleiotropic resistance networks.
Yeast cells were transformed with the linearized cassette and transformant colonies were selected on minimum media without leucine. Independent clones were checked by PCR and positive ones were stored at -80 °C until use.
(§3) The yeast (both HsCpIP+ and HsCIpP-) are incubated in petri dishes with YPD (Yeast extract peptone dextrose) at 25 °C overnight, after which a colony is isolated, suspended in a flask with fresh YPD and incubating again under the same conditions but with agitation. […] 100 µl of this solution was then placed into the appropriated wells of a standard 96-well plate. Stock solutions (DMSO, 10 mM) of the compounds to be tested are diluted in YPD to 2X of their final concentrations to be tested, and 100 µl added to the appropriate wells. 100 µl of YPD was added to wells designated as the negative control wells, while ONC206 (0.5 µM) was used as the positive control. Once all compounds were added to the plate, an initial T = 0 absorbance value was recorded at 600 Nm. The plate was then incubated at 25 °C with gentle shaking for 24 h. The plates can either be read at multiple time points using a TECAN Spark® Multimode Microplate Reader, or at the end of the experiment using a standard spectrophotometer.
(§4) Table 2: Growth inhibition (GI50) values for compounds of the present invention in yeast containing HsCIpP, and yeast without HsCIpP.

U2 OS = assay: MTT cell viability assay, U2 OS; assay type: cell-based; details: Homo sapiens, U2OS, U2 OS cells, 72 H, average of at least two independent experiments
Experimental: U2 OS [American Type Culture Collection (ATCC) reference number HTB-96]. This is a human bone cancer (a moderately differentiated sarcoma) cell derived from an osteosarcoma patient.
as §1

DU-145 = assay: MTT cell viability assay, DU-145; assay type: cell-based; details: Homo sapiens, DU-145 cells, 72 H, average of at least two independent experiments
Experimental: This a human prostate cancer cell line derived from a metastatic site (brain) of a person.
as §1

4T1 tumours = assay: 4T1 syngeneic tumour model in immunocompetent mice; assay type: in vivo, Balb/c mice; details: 25 mg/kg PO three times per week
Experimental: 4T1 syngeneic tumours were induced in female immunocompetent Balb/c mice by inject 12500 4T1 cells (passage# <7, in PBS, 100 µL) into their left inguinal mammary fat pad. Once tumour volumes [measure using the formula V = 0.5(length x width^2)] reached […], treatment with either vehicle, or compound in vehicle, was began. Compounds were administered orally (PO) at a constant dose (typically 25 mg/kg) three times per week (Monday, Wednesday and Friday). Compounds (as ether their free base or salt) were formulated as either solutions or homogenous suspensions in a vehicle of 10% Cremaphor RH40 + 90% saline for injection. Formulations were prepared at concentrations (mg/mL) = Dose/5 (e.g. a dose of 25 mg/Kg used a formulation of 5 mg/ml). Once treatments began, tumour volumes and body weights were recorded on each treatment day. Treatments were continued until 25-28 days after first treatment day, after which the mice were sacrificed. Animals whose tumour reached […] during the experiment were also sacrificed.

MDA-MB-231 = assay: MTT cell viability assay, MDA-MB-231; assay type: cell-based; details: Homo sapiens, MDA-MB-231 cells, 72 H, average of at least two independent experiments
Experimental: This a human breast cancer cell line derived from a metastatic site from a person.
as §1

Yeast - HsCIpP = assay: Yeast growth inhibition screen, yeast without human ClpP (selectivity control); assay type: cell-based; details: Saccharomyces cerevisiae; yeast without HsCIpP, 24 h at 25 °C, absorbance at 600 nm; read-out: Yeast - HsCIpP GI50
Experimental: as §2, §3, §4

Structure (SMILES): O=C1C2CN(Cc3cccc(F)c3)CCN2CCN1Cc1cccc(Cl)c1 (stereo not drawn) [Compound 4]
- pIC50 (4T1): 6.48
- pIC50 (PANC1): 6.47
- GI50 (Yeast + HsCIpP): 210 nM
- pIC50 (U2 OS): 6.30
- pIC50 (DU-145): 6.07
- changes in body weights (4T1 tumours; 4T1 tumour-bearing Balb/c mice, during the experimental period): no significant changes
- Tumour growth reduced (4T1 tumours; established 4T1 tumours, female Balb/c mice, versus vehicle, p < 0.01): 50%
- pIC50 (MDA-MB-231): 6.35
- GI50 (Yeast - HsCIpP): > 10000 nM
